Results published in patent US6177592A, “Compounds” (priority 1997, dated 2001).

Key:
Fas antigen [1] = assay: Fas antigen expression in Molt-3 cells; type: cell-based, human
Procedure: (§1) (2) Influence of GM on Fas antigen expression (productive induction) in Jurkat cells and Molt-3 cells was measured as follows. In a 10% FCS-containing RPMI 1640 medium containing 0, 1, 5, 10 or 20 μM of cyclopentenone or GM, 5×10^5 cell/ml of Jurkat cells or Molt-3 cells were incubated at 37° C. for 24 hours in the presence of 5% of CO2 and then subjected to a two-step immunostaining using an anti-Fas antibody (manufactured by Boehringer-Ingelheim) in accordance with a method of Munker [Munker, R.: Ann. Hematol., volume 70, pages 15-17 (1995)].
(§2) Fluorescence intensity of the stained 1×10^4 cells was measured by a flow cytometer (Orthocytron; manufactured by Ortho Diagnostic Systems) and ratio of the cell showing a predetermined or higher fluorescence intensity which were Fas antigen-expressing cells was calculated.
(3) Molt-3 cells were incubated for 1, 3, 6, 12 or 24 hours after addition of 10 (i M of GM by the same manner as in Example 12-(2) and then the ratio of the cells which expressed Fas antigen was measured by the same method as in Example 12-(2)sa

[2] = system: sensitivity reaction of a delayed type; assay: Delayed type hypersensitivity (ovine erythrocyte, pedal edema); type: in vivo, mouse (C57BL/6); conditions: 30 and 300 mg/kg i.p., three days
Procedure: C57BL/6 mice (female, five weeks age, body weight about 20 g) were purchased from Nippon SLC and used for the experiment after a preliminary breeding for one week at our end. Ovine erythrocyte (manufactured by Shimizu Jikken Zairyo) which is an antigen provoking the sensitivity reaction of a delayed type was washed three times with a physiological saline solution (manufactured by Otsuka Pharmaceutical) to make […] and 203 μl of it was intraperitoneally injected to mice to subject to an antigen sensitization.
After five days from the sensitization, 40 μl of antigen which was prepared by the same manner was injected to right paw to induce an antigen whereby pedal edema was provoked. From the antigen-sensitized date, GM was intraperitoneally administered to mice (one group consisting of five mice) once daily at the dose of 30 mg/kg or 300 mg/kg for three days.
After two days from the antigen induction, volume of right paw of the mice was measured by a measuring device for pedal edema (manufactured by Ugo Basile) and used as an index for the sensitivity reaction of a delayed type. The measured value was given by calculating the increasing rate from the right paw volume of the mice measured before the antigen induction.

NIH 3T3 = assay: Colony formation of NIH 3T3 cells; type: cell-based; conditions: 5 μM GM, nine days; control 91.7 ± 11.9
Procedure: NIH 3T3 cells were incubated at 37° C. under the condition of 5% CO2 in a Dulbecco-modified Eagle's medium containing 10% of calf serum.
(2) NIH 3T3 cells, the cells strains into which control vector was introduced and the cell strains into which E7 was introduced were made to grow to an extent of 50-70% confluence in a Dulbecco-modified Eagle's medium containing 10% of calf serum using a 100 mm-tissue culture plate and washed with PBS and the cells were peeled off with a 0.25% trypsin-EDTA solution and suspended in 5 ml of Dulbecco-modified Eagle's medium containing 10% of calf serum.
A part of the suspension was taken out and cell density was counted by a Neubauer's hemocytometer. Based upon the resulting data, it was diluted with a Dulbecco-modified Eagle's medium containing 10% of calf serum and planted on a tissue culture plate having a diameter of 60 mm to make 200 cells/plate and incubation was started in 3 ml of the medium. After 24 hours from the initiation of the incubation, GM was added thereto to make its concentration 5 μM. After additional 24 hours, the medium was exchanged with a fresh one and GM was added thereto to make its concentration 5 μM.
After that, the medium was exchanged with a fresh one every two to three days followed by adding GM thereto to make its concentration 5 μM. […]

Meth A cells = assay: Meth A subcutaneous tumor growth in BALB/c mice; type: in vivo, mouse; conditions: 5 mg/kg/day s.c., five days; after two weeks
Procedure: GM was diluted with a physiological saline solution to a predetermined concentration and subjected to the following tests.
(1) Meth A cells (2×10^6 cells/mouse) were subcutaneously injected to abdomen of female BALB/c mice (body weight: about 20 g) of eight weeks age. After that, GM (5 mg/kg/day) was subcutaneously injected for consecutive five days to the same site. On the other hand, a physiological saline solution was subcutaneously injected to the control group by the same manner. After two weeks, the cancer tissues generated in abdomen of the mice were excised and their weight were measured.

RAW264.7 cells = assay: Inhibition of LPS-caused cell damage in RAW264.7; type: cell-based, mouse; conditions: RAW 264.7
Procedure: Inhibition activity of GM to NO production and to cell damage was measured as follows using mouse macrophage cell strain RAW264.7 cells (ATCC TIB 71) and LPS.
Dulbecco-modified Eagle's medium (manufactured by Life Technologies Oriental; 11054-020) containing 2 mM of L-glutamine (manufactured by Life Technologies Oriental; 25030-149) containing no Phenol Red containing 5 ml of 10% fetal calf serum (manufactured by Gibco) containing 1.5×10^6 cells of RAW 264.7 was incubated in a six-well tissue culture plate in the presence of 5% carbon dioxide gas at 37° C. for 12 hours, 50μl of 50μg/ml LPS (manufactured by Sigma; L-2012) was added, then each 50 μl of 250 )i M Mn or 100 μH GM was added to each well, incubation was further continued for additional 12 hours and, after that, NO2^- produced by oxidation of NO in the medium and amount of viable cell numbers were measured. Incidentally, a sect-Lon where no LPS was added and a section where no GM was added were prepared as controls.

Molt-3 cells = assay: Growth of Molt-3 cells (MTT); type: cell-based, human; conditions: 24 hours
Procedure: (1) Jurkat cells (ATCC TIB-152) and Molt-3 cells (ATCC CRL-1552) which were human T cell leukemia cell stain were incubated in an RPMI 1640 medium (manufactured by Gibco BRL) containing 10% fetal calf serum (FCS, manufactured by Bio Whittaker) at 37° C. in the presence of 5% CO2 and the cells were then suspended in the above-mentioned medium containing 0, 5, 10 or 20 μM of GM to make the cell numbers 5×10^5 cells/ml followed by incubating for 24 hours. Cell growth was measured by an MTT method [Mosmann, et al.: J. Immunol. Methods, volume 65, pages 55-63 (1983)] wherein degree of cell growth was determined by the absorbance at 560 nm.

Fas antigen [3] = assay: Fas antigen expression in Jurkat cells; type: cell-based, human; conditions: 1-10 μM, 24 hours
Procedure: as §1, §2

With N[C@@H](CCC(=O)N[C@@H](CSC1C=C(O)C(=O)C1)C(=O)NCC(=O)O)C(=O)O (stereo partly shown) [GM, 2-hydroxy-4-glutathion-S-yl-2-cyclopenten-1-one] the “ratio of Fas antigen-expressing cells, time course” value (Fas antigen [1]; 10 μM, 1-24 hours) was “increased after 12 hours from the incubation and further increase was noted after 24 hours”, the “ratio of Fas antigen-expressing cells” value (Fas antigen [1]; 1-10 μM, 24 hours) was “the ratio of Fas antigen-expressing cells increased on a concentration-dependent manner” and the “inhibiting action to a sensitivity reaction of a delayed type” value [2] was “significant inhibiting action to a sensitivity reaction of a delayed type”. For the same compound, the “Numbers of Colonies (Mean Value ± SD)” value (NIH 3T3) was 79.0 ± 2.6, the “inhibiting action to the growth of cancer (weight of cancer tissues)” value (Meth A cells) was “significant inhibiting action to the growth of cancer” and the “inhibition of cell damage caused by LPS” value (RAW264.7 cells) was “inhibited the cell damage in RAW 264.7 cells caused by LPS”. For the same compound, the “effect in the growth of cells” value (Molt-3 cells; 5 μM or less) was “no significant effect in the growth of cells”, the inhibition at 10 µM (Molt-3 cells; Homo sapiens, 10 μM, read-out: inhibition of cell growth) was roughly 50% and the inhibition at 20 µM (Molt-3 cells; Homo sapiens, 20 μM, read-out: inhibition of cell growth) was no less than 75%. For the same compound, the “ratio of Fas antigen-expressing cells” value (Fas antigen [3]) was “the ratio of Fas antigen-expressing cells increased on a concentration-dependent manner”.
